Experimental data taken from patent publication US20010055614A1, “Antidepressant therapy” (priority 1998, published 2001).
Counter-ions that a name gives are not always drawn.

Assays:
[1] = pKa of amitriptyline hydrochloride; type: physicochemical
[2] = Solubility and dissolution rate of amitriptyline hydrochloride in artificial gastric and intestinal fluid; type: physicochemical
Protocol: Dosage form 10 controls the exit 13 surface area for releasing drug 16 essentially independent of the pH of the drug receiving biological receptor, thereby essentially preventing crystallizing drug 16 in exit 13, or essentially preventing blocking exit 13 with nonreleased drug 16. […] In artificial intestinal fluid at 37° C. the drug dissolution rate in artificial intestinal fluid at pH 7.5 is low compared to the dissolution rate in a lower pH such as gastric fluid having a pH of about 2. […] The dissolution rate is sensitive to pH changes, and when drug 16 is pumped from the dosage form it tends to crystallize at higher pH in orifice exit 13, or to partially block orifice exit 13, which in either instance, slows the drug release rate, and decreases the cumulative amount of drug released from the dosage form. The present invention by providing coated granules of antidepressant tricyclic drug 16, and by providing an orifice in the range of 1 mil to 30 mil (0.0254 mm to 0.760 mm), essentially overcomes the problems discussed above. […] In drawing FIG. 6, the release rate is given on the y-axis and the orifice surface area in mils and in mm^2 is given on the x-axis. The release of drug from the dosage form was measured in artificial intestinal fluid. […] Drawing FIG. 9 depicts the cumulative amount of drug release in mg, over a period of 24 hours for a coated drug through a 10 mil (0.254 mm) exit orifice illustrates about 100% of the drug is delivered free of crystalizing in the orifice. Drawing FIG. 10 depicts the release rate measured in artificial gastric fluid over zero to two hours and then in artificial intestinal fluid over two to twenty-four hours, through a 10 mil (0.254 mm) orifice illustrates about 90% of the drug is delivered under these conditions. […] The antidepressant drug is dose delivered independent of pH as found in the gastrointestinal drug and free from sticking or blocked delivery to a patient.

## CN(C)CCC=C1c2ccccc2CCc2ccccc21 [amitriptyline hydrochloride]
[1]
  pKa: 9.4
[2]; 7.5 pH, artificial intestinal fluid, compared to artificial gastric fluid at pH 6
  solubility (in words): soluble, but the solubility is less
[2]; artificial gastric fluid, pH 6, simulated gastric fluid
  solubility: > 600 mg/mL
[2]; artificial intestinal fluid at pH 7.5, 37° C., compared to gastric fluid pH about 2
  dissolution rate (in words): low
